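Grown in 96-well plates, cells were treated for 48 hours with each compound at five concentrations. Insufficient inhibition: endpoint recorded as highest concentration tested. GI50 is the concentration that inhibits growth by half. TGI marks complete inhibition of growth.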
What was measured:
Test in all cases: DTP human tumour cell line panel, 48 h
COLO 205 colon = test system: COLO 205 colon
A549 NSCLC = test system: A549 NSCLC
CAKI-1 renal = test system: CAKI-1 renal
SF-295 CNS = test system: SF-295 CNS
UACC-62 melanoma = test system: UACC-62 melanoma
DU-145 prostate = test system: DU-145 prostate
KM12 colon = test system: KM12 colon
SK-MEL-28 melanoma = test system: SK-MEL-28 melanoma
HT29 colon = test system: HT29 colon
K-562 leukemia = test system: K-562 leukemia
OVCAR-4 ovarian = test system: OVCAR-4 ovarian
A498 renal = test system: A498 renal
EKVX NSCLC = test system: EKVX NSCLC
SN12C renal = test system: SN12C renal
SF-539 CNS = test system: SF-539 CNS
SNB-19 CNS = test system: SNB-19 CNS
786-0 renal = test system: 786-0 renal
SW-620 colon = test system: SW-620 colon
HCC-2998 colon = test system: HCC-2998 colon
MDA-MB-435 = test system: MDA-MB-435
HCT-116 colon = test system: HCT-116 colon
HCT-15 colon = test system: HCT-15 colon
MCF7 breast = test system: MCF7 breast
LOX IMVI melanoma = test system: LOX IMVI melanoma
T-47D breast = test system: T-47D breast
CCRF-CEM leukemia = test system: CCRF-CEM leukemia
SK-OV-3 ovarian = test system: SK-OV-3 ovarian

With `CS(=O)(=O)c1nccc(-c2c(-c3cccc(OCc4ccc(Cl)c(C(F)(F)F)c4)c3)nc3sccn23)n1` the GI50 (COLO 205 colon) was 7.02 µM, the TGI (COLO 205 colon) was 13.9 µM and the GI50 (A549 NSCLC) was 18.1 µM. For the same compound, the TGI (A549 NSCLC) was > 50 µM, the GI50 (CAKI-1 renal) was 7.54 µM and the TGI (CAKI-1 renal) was 14.7 µM. For the same compound, the GI50 (SF-295 CNS) was 7.15 µM, the TGI (SF-295 CNS) was 15.2 µM and the GI50 (UACC-62 melanoma) was 8.49 µM. It also gave a TGI (UACC-62 melanoma) of 16.9 µM, a GI50 (DU-145 prostate) of 5.01 µM and a TGI (DU-145 prostate) of 10.8 µM. For the same compound, the GI50 (KM12 colon) was 9.47 µM, the TGI (KM12 colon) was 17.8 µM and the GI50 (SK-MEL-28 melanoma) was 6.48 µM. It also gave a TGI (SK-MEL-28 melanoma) of 13.1 µM, a GI50 (HT29 colon) of 7.99 µM and a TGI (HT29 colon) of 16.3 µM. For the same compound, the GI50 (K-562 leukemia) was 2.1 µM, the TGI (K-562 leukemia) was > 50 µM and the GI50 (OVCAR-4 ovarian) was 6.46 µM. The TGI (OVCAR-4 ovarian) was 13.8 µM, the GI50 (A498 renal) was 7.15 µM and the TGI (A498 renal) was 13.8 µM. It also gave a GI50 (EKVX NSCLC) of 6.92 µM, a TGI (EKVX NSCLC) of 14.4 µM and a GI50 (SN12C renal) of 7.07 µM. The TGI (SN12C renal) was 23.1 µM, the GI50 (SF-539 CNS) was 7.64 µM and the TGI (SF-539 CNS) was 15 µM. The GI50 (SNB-19 CNS) was 6.53 µM, the TGI (SNB-19 CNS) was 13 µM and the GI50 (786-0 renal) was 8.45 µM. The TGI (786-0 renal) was 15.3 µM, the GI50 (SW-620 colon) was 1.79 µM and the TGI (SW-620 colon) was 6.84 µM. It also gave a GI50 (HCC-2998 colon) of 0.91 µM, a TGI (HCC-2998 colon) of 1.68 µM and a GI50 (MDA-MB-435) of 9.02 µM. It also gave a TGI (MDA-MB-435) of 17.9 µM, a GI50 (HCT-116 colon) of 6.53 µM and a TGI (HCT-116 colon) of 12.9 µM. The GI50 (HCT-15 colon) was 1.02 µM, the TGI (HCT-15 colon) was 2.42 µM and the GI50 (MCF7 breast) was 0.937 µM. It also gave a TGI (MCF7 breast) of 1.98 µM, a GI50 (LOX IMVI melanoma) of 0.809 µM and a TGI (LOX IMVI melanoma) of 1.63 µM. For the same compound, the GI50 (T-47D breast) was 0.881 µM, the TGI (T-47D breast) was 1.82 µM and the GI50 (CCRF-CEM leukemia) was 1.67 µM. For the same compound, the TGI (CCRF-CEM leukemia) was > 50 µM, the GI50 (SK-OV-3 ovarian) was 10.3 µM and the TGI (SK-OV-3 ovarian) was 33.7 µM.

— PubChem BioAssay (NCI)
